Assay results from patent publication US20190367448A1, “TREATMENT OF SLEEP-WAKE DISORDERS” (SK Biopharmaceuticals Co., Ltd., priority 2005, published 2019).

Tested on: male adult Sprague Dawley rats
Assay: Sleep-wake organization in rats, polysomnographic recording (EEG, EOG, EMG, body movement) for 16 hours after acute i.p. administration
Type: in vivo, rat
Conditions: rats; for Duration (min) Active wake / Duration (min) Deep sleep / Duration (min) Light sleep / Duration (min) Passive wake / Duration (min) REM sleep / Duration (min) intermediate stage / ISWS/TST (%) / Latency (min) ISWS / Latency (min) REM sleep / Latency (min) dSWS / REMS/TST (%) / Shifts (number) Shift from ISWS to AW / Shifts (number) Shift from ISWS to PW / Shifts (number) Shift from REMS to AW / Shifts (number) Shift from REMS to PW / Shifts (number) Shift from dSWS to AW / Shifts (number) Shift from dSWS to PW / Total sleep time TST / dSWS/TST (%): 16 hours recording period; for change in number of active wakefulness epochs / change in number of deep sleep epochs / change in number of light sleep epochs / change in duration of active wakefulness / change in time spent in deep sleep / change in time spent in light sleep / change in number of REM sleep epochs / change in duration of REM sleep: 10 mg/kg
[1] = highest dose tested, 16 hours recording

COC(=O)[C@H]1[C@@H](OC(=O)c2ccccc2)C[C@@H]2CC[C@H]1N2C [Cocaine, cocaine]
Duration (min) Active wake (1 mg/kg i.p.): 331.5 min
Duration (min) Deep sleep (1 mg/kg i.p.): 162.9 min
Duration (min) Light sleep (1 mg/kg i.p.): 293.2 min
Duration (min) Passive wake (1 mg/kg i.p.): 69.8 min
Duration (min) REM sleep (1 mg/kg i.p.): 84.2 min
Duration (min) intermediate stage (1 mg/kg i.p.): 6.7 min
ISWS/TST (%) (1 mg/kg i.p.): 51.8 ± 4.5%
Latency (min) ISWS (1 mg/kg i.p.): 69.9 ± 51.2 min
Latency (min) REM sleep (1 mg/kg i.p.): 74.3 ± 12.1 min
Latency (min) dSWS (1 mg/kg i.p.): 79.3 ± 26.7 min
REMS/TST (%) (1 mg/kg i.p.): 15.4 ± 0.9%
Shifts (number) Shift from ISWS to AW (1 mg/kg i.p.): 184.1 number
Shifts (number) Shift from ISWS to PW (1 mg/kg i.p.): 128.6 number
Shifts (number) Shift from REMS to AW (1 mg/kg i.p.): 74.5 number
Shifts (number) Shift from REMS to PW (1 mg/kg i.p.): 17.0 number
Shifts (number) Shift from dSWS to AW (1 mg/kg i.p.): 10.1 number
Shifts (number) Shift from dSWS to PW (1 mg/kg i.p.): 66.6 number
Total sleep time TST (1 mg/kg i.p.): 547.0 ± 51.5 min
dSWS/TST (%) (1 mg/kg i.p.): 31.2 ± 4.8%
Duration (min) Active wake (3 mg/kg i.p.): 324.8 min
Duration (min) Deep sleep (3 mg/kg i.p.): 172.6 min
Duration (min) Light sleep (3 mg/kg i.p.): 303.2 min
Duration (min) Passive wake (3 mg/kg i.p.): 66.7 min
Duration (min) REM sleep (3 mg/kg i.p.): 76.7 min
Duration (min) intermediate stage (3 mg/kg i.p.): 5.7 min
ISWS/TST (%) (3 mg/kg i.p.): 53.8 ± 6.3%
Latency (min) ISWS (3 mg/kg i.p.): 41.5 ± 9.2 min
Latency (min) REM sleep (3 mg/kg i.p.): 112.0 ± 12.2 min
Latency (min) dSWS (3 mg/kg i.p.): 68.6 ± 7.6 min
REMS/TST (%) (3 mg/kg i.p.): 13.8 ± 1.1%
Shifts (number) Shift from ISWS to AW (3 mg/kg i.p.): 218.5 number
Shifts (number) Shift from ISWS to PW (3 mg/kg i.p.): 142.2 number
Shifts (number) Shift from REMS to AW (3 mg/kg i.p.): 56.0 number
Shifts (number) Shift from REMS to PW (3 mg/kg i.p.): 10.7 number
Shifts (number) Shift from dSWS to AW (3 mg/kg i.p.): 10.2 number
Shifts (number) Shift from dSWS to PW (3 mg/kg i.p.): 64.5 number
Total sleep time TST (3 mg/kg i.p.): 558.2 ± 21.2 min
dSWS/TST (%) (3 mg/kg i.p.): 31.4 ± 6.1%
Duration (min) Active wake (10 mg/kg i.p.): 347.3 min
Duration (min) Deep sleep (10 mg/kg i.p.): 171.9 min
Duration (min) Light sleep (10 mg/kg i.p.): 294.6 min
Duration (min) Passive wake (10 mg/kg i.p.): 55.0 min
Duration (min) REM sleep (10 mg/kg i.p.): 74.7 min
Duration (min) intermediate stage (10 mg/kg i.p.): 6.3 min
ISWS/TST (%) (10 mg/kg i.p.): 53.8 ± 4.0%
Latency (min) ISWS (10 mg/kg i.p.): 101.8 ± 6.9 min
Latency (min) REM sleep (10 mg/kg i.p.): 192.1 ± 18.5 min
Latency (min) dSWS (10 mg/kg i.p.): 138.8 ± 8.7 min
REMS/TST (%) (10 mg/kg i.p.): 13.8 ± 1.5%
Shifts (number) Shift from ISWS to AW (10 mg/kg i.p.): 201.2 number
Shifts (number) Shift from ISWS to PW (10 mg/kg i.p.): 132.6 number
Shifts (number) Shift from REMS to AW (10 mg/kg i.p.): 52.3 number
Shifts (number) Shift from REMS to PW (10 mg/kg i.p.): 9.2 number
Shifts (number) Shift from dSWS to AW (10 mg/kg i.p.): 10.4 number
Shifts (number) Shift from dSWS to PW (10 mg/kg i.p.): 37.6 number
Total sleep time TST (10 mg/kg i.p.): 547.6 ± 18.2 min
dSWS/TST (%) (10 mg/kg i.p.): 31.3 ± 4.2%
change in number of active wakefulness epochs (0.5 h): +111%
change in number of deep sleep epochs (0.5 h): −100%
change in number of light sleep epochs (0.5 h): −100%
change in duration of active wakefulness (0.5 h after treatment): +111%
change in time spent in deep sleep (0.5 h after treatment): 90%
change in time spent in light sleep (0.5 h after treatment): −100%
change in number of REM sleep epochs (0.5 hr): −100%
change in duration of REM sleep (0.5 hr after administration): −100%
change in number of active wakefulness epochs (1 h): +500%
change in duration of active wakefulness (1 h after treatment): +500%
change in time spent in deep sleep (1 h after treatment): −100%
change in time spent in light sleep (1 h after treatment): −99%
change in number of REM sleep epochs (1 hr): −100%
change in number of deep sleep epochs (1 hr): −100%
change in number of light sleep epochs (1 hr): −99%
change in duration of REM sleep (1 hr after administration): −100%
change in number of deep sleep epochs (1.5 h): −100%
change in number of light sleep epochs (1.5 h): −87%
change in number of REM sleep epochs (1.5 hr): −100%
change in number of active wakefulness epochs (1.5 hr): +312%
change in duration of REM sleep (1.5 hr after administration): −100%
change in duration of active wakefulness (1.5 hr after treatment): +312%
change in time spent in deep sleep (1.5 hr after treatment): −99%
change in time spent in light sleep (1.5 hr after treatment): −87%
change in number of active wakefulness epochs (2 h): +119%
change in duration of active wakefulness (2 h after treatment): +120%
change in time spent in deep sleep (2 h after treatment): −70%
change in time spent in light sleep (2 h after treatment): −25%
change in number of REM sleep epochs (2 hr): −87%
change in number of deep sleep epochs (2 hr): −38%
change in number of light sleep epochs (2 hr): −22%
change in duration of REM sleep (2 hr after administration): −87%
change in number of REM sleep epochs (2.5 hr): −47%
change in number of active wakefulness epochs (2.5 hr): +166%
change in duration of REM sleep (2.5 hr after administration): −47%
change in duration of active wakefulness (2.5 hr after treatment): +166%
change in number of REM sleep epochs (3 hr): −78%
change in number of active wakefulness epochs (3 hr): +77%
change in duration of REM sleep (3 hr after administration): −78%
change in duration of active wakefulness (3 hr after treatment): +77%
decrease in total time spent in REM sleep [1]: −18%
increase in total duration of active wakefulness [1]: +14%
